System: Sprague-Dawley rats
Details: rat
Description: Brief description of the protocol: 16 male Sprague-Dawley rats weighting 100 to 125 g were randomly assigned to 4 groups (4 rats per group (Gp)): Gp1, Phosphate buffer solution (PBS); Gp2, 0.02% benzalkonium chloride (BAK); Gp3, Xalatan®; Gp4, Latanoprost Emulsion. Following general and local anesthesia with ketamine/xylazine and topical Oxybucaïne, respectively, the upper part of the right eye cornea of each rat was scraped with a surgical scalpel following an application of 50 μl of 50% ethanol solution. The upper corneal and limbal epithelia were removed (at day D0). One drop of Tobrex was instilled immediately after the scraping. 2 and 5 hours post scraping one drop of the different test articles were applied onto the cornea of the right eye. These latter instillations were repeated every day for 4 days, and corneal evaluation with an in vivo confocal microscope (IVCM-HRT) was performed on day 4 after the last instillation. At the end of the experimental procedure (the total duration of the treatment is 5 days; from day D0 to D4), the animals were sacrificed and the eyes harvested to characterize the histological organisation of the treated cornea.

IVCM (in vivo confocal microscopy) of superficial epithelium: scar tissue / hypereflectivity: corneal edema and tissue disorganisation
Substance: benzalkonium chloride [0.02% BAK solution]
Hematoxylin-eosin staining of treated cornea (epithelium thinning, edema, inflammatory infiltrates) (in vivo): edemas and inflammatory infiltrates are particularly obvious

Source: patent US9555045B2, “Use of prostaglandins F2alpha and analogues for the healing of corneal and conjunctival lesions” (SANTEN SAS, priority 2009, dated 2017)
